Reference: US9243025B2, “Compounds and pharmaceutical compositions for the treatment of viral infections” (Idenix Pharmaceuticals, LLC, priority 2011, dated 2016)
Read-outs that look alike come from different tables or passages of the source.

What was measured:
[1] = tested on: Huh-7 cells containing HCV Coni subgenomic replicon (GS4.1 cells); assay: HCV replicon assay; format: cell-based; details: read-out: HCV Replicon EC50
Procedure: (§1) Huh-7 cells containing HCV Coni subgenomic replicon (GS4.1 cells), (C. Seeger; Fox Chase University, Philadelphia, Pa., USA), are grown in Dulbecco's Modified Eagle Medium (DMEM) supplemented with 10% fetal bovine serum (FBS), 2 mM L-glutamine, 110 mg/L sodium pyruvate, 1× non-essential amino acids, 100 U/mL penicillin-streptomycin and 0.5 mg/mL G418 (Invitrogen). For dose-response testing, the cells are seeded in 96-well plates at 7.5×10^3 cells/well in a volume of 50 μL and incubated at 37° C./5% CO2. Three hours after plating, 50 μL of ten 2-fold serial dilutions of compounds (highest concentration, 75 μM) are added and cell cultures were incubated at 37° C./5% CO2 in the presence of 0.5% DMSO. Alternatively, compounds are tested at a single concentration of 15 μM. In all cases, Huh-7 cells lacking the HCV replicon served as negative control. The cells are incubated in the presence of compounds for 72 hours after which they were monitored for expression of the NS4A protein by enzyme-linked immunosorbent assay (ELISA). For this, the plates were then fixed for 1 min with 1:1 acetone:methanol, washed twice with phosphate-buffered saline (PBS), 0.1% Tween 20, blocked for 1 hour at room temperature with TNE buffer containing 10% FBS and then incubated for 2 h at 37° C. with the anti-NS4A mouse monoclonal antibody A-236 (ViroGen) diluted in the same buffer. After washing three times with PBS, 0.1% Tween 20, the cells are incubated 1 hour at 37° C. with anti-mouse immunoglobulin G-peroxidase conjugate in TNE, 10% FBS. After washing as described above, the reaction is developed with O-phenylenediamine (Zymed). The reaction is stopped after 30 minutes with […] and the absorbance is read at 492 nm using a Sunrise Tecan spectrophotometer. EC50 values are determined from the % inhibition versus concentration data using a sigmoidal non-linear regression analysis based on four parameters with Tecan Magellan software. When screening at a single concentration, the results are expressed as % inhibition at 15 μM. For cytotoxicity evaluation, GS4.1 cells are treated with compounds as described above and cellular viability was monitored using a Cell Titer 96 AQueous One Solution Cell Proliferation Assay (Promega). CC50 values are determined from the % cytotoxicity versus concentration data with Tecan Magellan software as described above.
Compounds presented in the table below were assayed according to the replicon assay described above.

[2] = Cytotoxicity evaluation in GS4.1 cells (Cell Titer 96 AQueous One Solution Cell Proliferation Assay); format: cell-based; details: human, cellular viability, treated as in replicon assay, read-out: HCV Replicon CC50
Procedure: as §1

[3] = Hepatitis C virus, Huh-7, 72 h, GS4.1 cells, 72 hours incubation, NS4A expression by ELISA

| SMILES | EC50 ([1]; GS4.1 cells, 72 hours incubation, NS4A expression by ELISA) | CC50 at 72 h [2] | EC50 ([1]; Hepatitis C virus, Huh-7, 72 h) | EC50 [1, 3] |
| --- | --- | --- | --- | --- |
| CCOC(=O)[C@@H](CC(C)C)NP(=O)(N[C@H](CC(C)C)C(=O)OCC)OC[C@H]1O[C@@H](n2cnc3c(OC)nc(N)nc32)C(C)(O)C1O (stereo partly drawn) [Compound 61] | 1000 to 10000 nM | > 75000 nM |  |  |
| COc1nc(N)nc2c1ncn2[C@@H]1O[C@H](COP(=O)(NCc2ccccc2)OCCSC(=O)C(C)(C)CO)C(O)C1(C)O (stereo partly drawn) [Compound 57] |  | > 75000 nM | < 100 nM |  |
| CCOC(=O)[C@H](CC)NP(=O)(N[C@H](CC)C(=O)OCC)OC[C@H]1O[C@@H](n2cnc3c(OC)nc(N)nc32)C(C)(O)C1O (stereo partly drawn) [Compound 63] |  | > 75000 nM |  | 100 to 1000 nM |
| CCOC(=O)[C@H](C)NP(=O)(N[C@@H](C)C(=O)OCC)OC[C@H]1O[C@@H](n2cnc3c(NC4CC4)nc(N)nc32)[C@@](C)(O)C1O (stereo partly drawn) [Compound 31] |  | > 75000 nM |  | 100 to 1000 nM |
| CCOC(=O)[C@H](CC(C)C)NP(=O)(N[C@@H](CC(C)C)C(=O)OCC)OC[C@H]1O[C@@H](n2cnc3c(OC)nc(N)nc32)C(C)(O)C1O (stereo partly drawn) [Compound 65] |  | > 75000 nM |  | < 100 nM |
| CCOC(=O)[C@H](Cc1ccccc1)NP(=O)(N[C@@H](Cc1ccccc1)C(=O)OCC)OC[C@H]1O[C@@H](n2cnc3c(N4CCOCC4)nc(N)nc32)C(C)(O)C1O (stereo partly drawn) [Compound 71] |  | > 75000 nM |  | < 100 nM |
| CCOC(=O)[C@@H](NP(=O)(N[C@@H](C(=O)OCC)c1ccccc1)OC[C@H]1O[C@@H](n2cnc3c(OC)nc(N)nc32)C(C)(O)C1O)c1ccccc1 (stereo partly drawn) [Compound 59] |  | > 75000 nM |  | 1000 to 10000 nM |
| CCOC(=O)[C@H](Cc1ccccc1)NP(=O)(N[C@@H](Cc1ccccc1)C(=O)OCC)OC[C@H]1O[C@@H](n2cnc3c(N4CCCC4)nc(N)nc32)C(C)(O)C1O (stereo partly drawn) [Compound 69] |  | ≤ 75000 nM |  | < 100 nM |
| CCOC(=O)[C@H](Cc1ccccc1)NP(=O)(N[C@@H](Cc1ccccc1)C(=O)OCC)OC[C@H]1O[C@@H](n2cnc3c(NC4CC4)nc(N)nc32)[C@@](C)(O)C1O (stereo partly drawn) [Compound 32] |  | > 75000 nM |  | < 100 nM |
| CCOC(=O)[C@H](CC(C)C)NP(=O)(N[C@H](CC(C)C)C(=O)OCC)OC[C@H]1O[C@@H](n2cnc3c(OC(C)C)nc(N)nc32)C(C)(O)C1O (stereo partly drawn) [Compound 62] |  | > 75000 nM |  | < 100 nM |
| C#CC1(F)C(O)[C@@H](COP(=O)(NC(CC(C)C)C(=O)OCC)NC(CC(C)C)C(=O)OCC)O[C@H]1n1cnc2c(=O)[nH]c(N)nc21 (stereo partly drawn) [Compound 22] |  | > 75000 nM |  | > 10000 nM |
| COc1nc(N)nc2c1ncn2[C@@H]1O[C@H](COP(N)(=O)OCCSC(=O)C(C)(C)CO)C(O)C1(C)O (stereo partly drawn) [Compound 73] |  | > 75000 nM |  | 100 to 1000 nM |
| CCCCOC(=O)[C@H](CC(C)C)NP(=O)(N[C@@H](CC(C)C)C(=O)OCCCC)OC[C@H]1O[C@@H](n2cnc3c(OC)nc(N)nc32)[C@@](C)(O)C1O (stereo partly drawn) [Compound 44] |  | ≤ 75000 nM |  | < 100 nM |
| CCOC(=O)[C@H](CC(C)C)NP(=O)(N[C@@H](CC(C)C)C(=O)OCC)OC[C@H]1O[C@@H](n2cnc3c(N4CCOCC4)nc(N)nc32)C(C)(O)C1O (stereo partly drawn) [Compound 34] |  | > 75000 nM |  | 100 to 1000 nM |
| CCOC(=O)[C@@H](NP(=O)(N[C@H](C(=O)OCC)c1ccccc1)OC[C@H]1O[C@@H](n2cnc3c(NC4CC4)nc(N)nc32)C(C)(O)C1O)c1ccccc1 (stereo partly drawn) [Compound 30] |  | > 75000 nM |  | 1000 to 10000 nM |
| CCCOc1nc(N)nc2c1ncn2[C@@H]1O[C@H](COP(=O)(N[C@@H](CC(C)C)C(=O)OCC)N[C@@H](CC(C)C)C(=O)OCC)C(O)C1(C)O (stereo partly drawn) [Compound 33] |  | ≤ 75000 nM |  | < 100 nM |
| COC(=O)C(CC(C)C)NP(=O)(NC(CC(C)C)C(=O)OC)OC[C@H]1O[C@@H](n2cnc3c(NC4CC4)nc(N)nc32)C(C)(O)C1O (stereo partly drawn) [Compound 8] |  | > 75000 nM |  | 100 to 1000 nM |
| CCOC(=O)[C@H](CC(C)C)NP(=O)(N[C@@H](CC(C)C)C(=O)OCC)OC[C@H]1O[C@@H](n2ccc(OC)nc2=O)[C@](C)(O)[C@@H]1O [Compound 55] |  | > 75000 nM |  | 100 to 1000 nM |
| CCOC(=O)[C@H](CC(C)C)NP(=O)(N[C@@H](CC(C)C)C(=O)OCC)OC[C@H]1O[C@@H](n2cnc3c(N(C)C)nc(N)nc32)C(C)(O)C1O (stereo partly drawn) [Compound 35] |  | > 75000 nM |  | < 100 nM |

| SMILES | EC50 ([1]; GS4.1 cells, 72 hours incubation, NS4A expression by ELISA) | CC50 at 72 h [2] | EC50 ([1]; Hepatitis C virus, Huh-7, 72 h) | EC50 [1, 3] |
| --- | --- | --- | --- | --- |
| CCOC(=O)C(NP(=O)(NC(C(=O)OCC)C(C)C)OC[C@H]1O[C@@H](n2cnc3c(NC4CC4)nc(N)nc32)C(C)(O)C1O)C(C)C (stereo partly drawn) [Compound 70] |  | > 75000 nM |  | 100 to 1000 nM |
| COC(=O)C(CC(C)C)NP(=O)(NC(CC(C)C)C(=O)OC)OC[C@H]1O[C@@H](n2cnc3c(OC)nc(N)nc32)[C@@]2(C)OC(=O)OC12 (stereo partly drawn) [Compound 4] |  | > 75000 nM |  | < 100 nM |
| COC(=O)C(CC(C)C)NP(=O)(NC(CC(C)C)C(=O)OC)OC[C@H]1O[C@@H](n2cnc3c(OC)nc(N)nc32)[C@@](C)(O)C1O (stereo in doubt) [Compound 3] |  | > 75000 nM |  | 100 to 1000 nM |
| CCOC(=O)[C@@H](NP(=O)(N[C@@H](C(=O)OCC)C(C)C)OC[C@H]1O[C@@H](n2cnc3c(OC)nc(N)nc32)C(C)(O)C1O)C(C)C (stereo partly drawn) [Compound 58] |  | > 75000 nM |  | < 100 nM |
| C#CC1(F)C(O)[C@@H](COP(=O)(NC(CC(C)C)C(=O)OC)NC(CC(C)C)C(=O)OC)O[C@H]1n1cnc2c(=O)[nH]c(N)nc21 (stereo partly drawn) [Compound 23] |  | > 75000 nM |  | > 10000 nM |
| CCOC(=O)C(CC(C)C)NP(=O)(NC(CC(C)C)C(=O)OCC)OC[C@H]1O[C@@H](n2cnc3c(NC4CC4)nc(N)nc32)C(C)(O)C1O (stereo partly drawn) [Compound 6] |  | > 75000 nM |  | < 100 nM |
| CN(N)c1nc(N)nc2c1ncn2[C@@H]1O[C@H](COP(=O)(NCc2ccccc2)OCCSC(=O)C(C)(C)CO)C(O)C1(C)O (stereo partly drawn) [Compound 78] |  | > 75000 nM |  | 100 to 1000 nM |
| COc1ccn([C@@H]2O[C@H](COP(=O)(NCc3ccccc3)OCCSC(=O)C(C)(C)CO)[C@@H](O)[C@@]2(C)O)c(=O)n1 (stereo partly drawn) [Compound 56] |  | > 75000 nM |  | < 100 nM |
| CCOC(=O)[C@@H](NP(=O)(N[C@H](C(=O)OCC)C(C)C)OC[C@H]1O[C@@H](n2cnc3c(SC)nc(N)nc32)C(C)(O)C1O)C(C)C (stereo partly drawn) [Compound 77] |  | > 75000 nM |  | 100 to 1000 nM |
| COC(=O)C1CCCN1P(=O)(OC[C@H]1O[C@@H](n2cnc3c(OC)nc(N)nc32)C(C)(O)C1O)N1CCCC1C(=O)OC (stereo partly drawn) [Compound 60] |  | > 75000 nM |  | 100 to 1000 nM |
| CCOC(=O)[C@H](CC(C)C)NP(=O)(N[C@H](CC(C)C)C(=O)OCC)OC[C@H]1O[C@@H](n2cnc3c(OCC)nc(N)nc32)C(C)(O)C1O (stereo partly drawn) [Compound 64] |  | > 75000 nM |  | < 100 nM |
| C#CC1(F)C(O)[C@@H](COP(=O)(NCC(=O)OCC)NCC(=O)OCC)O[C@H]1n1cnc2c(=O)[nH]c(N)nc21 (stereo partly drawn) [Compound 48] |  | > 75000 nM |  | 1000 to 10000 nM |
| CCOC(=O)[C@H](CC(C)C)NP(=O)(N[C@@H](CC(C)C)C(=O)OCC)OC[C@H]1O[C@@H](n2cnc3c(=O)[nH]c(N)nc32)C(C)(O)C1O (stereo partly drawn) [Compound 37] |  | > 75000 nM |  | 1000 to 10000 nM |
| CCOC(=O)CCNP(=O)(OCCSC(=O)C(C)(C)CO)OC[C@H]1O[C@@H](n2cnc3c(NC4CC4)nc(N)nc32)C(C)(O)C1O (stereo partly drawn) [Compound 76] |  | > 75000 nM |  | 100 to 1000 nM |
| CCCOC(=O)[C@H](CC(C)C)NP(=O)(N[C@@H](CC(C)C)C(=O)OCCC)OC[C@H]1O[C@@H](n2cnc3c(OC)nc(N)nc32)[C@@](C)(O)C1O (stereo partly drawn) [Compound 43] |  | ≤ 75000 nM |  | < 100 nM |
| CCOC(=O)[C@@H](NP(=O)(N[C@H](C(=O)OCC)C(C)C)OC[C@H]1O[C@@H](n2cnc3c(N4CCCC4)nc(N)nc32)C(C)(O)C1O)C(C)C (stereo partly drawn) [Compound 68] |  | > 75000 nM |  | < 100 nM |
| CCOC(=O)[C@H](CC(C)C)NP(=O)(N[C@@H](CC(C)C)C(=O)OCC)OC[C@H]1O[C@@H](n2cnc3c(NC4CCCC4)nc(N)nc32)C(C)(O)C1O (stereo partly drawn) [Compound 38] |  | ≤ 75000 nM |  | < 100 nM |
| CCOC(=O)C(Cc1ccccc1)NP(=O)(NC(Cc1ccccc1)C(=O)OCC)OC[C@H]1O[C@@H](n2cnc3c(OC)nc(N)nc32)C(C)(O)C1O (stereo in doubt) [Compound 16] |  | ≤ 75000 nM |  | < 100 nM |
| COc1nc(N)nc2c1ncn2[C@@H]1O[C@H](COP(=O)(NC(C)C)OCCSC(=O)C(C)(C)CO)C(O)C1(C)O (stereo partly drawn) [Compound 57] |  |  | 100 to 1000 nM |  |
